Laboratory results reported in PMC12951562, “SH2scan: Mapping SH2 Domain-Ligand Binding Selectivity for Inhibitors and Degraders” (Journal of Medicinal Chemistry, 2026).
Numbering of substitutions follows the chain as printed. Read-outs that look alike come from different tables or passages of the source. Non-standard residues stand in square brackets, D forms with d. Residues, ends and D or L forms follow the SMILES beside them. *: point of attachment. pY = N[C@@H](Cc1ccc(OP(=O)(O)O)cc1)C(=O)O; Caffeoyl = O=C(/C=C/c1ccc(O)c(O)c1)*

How the values were obtained:
STAT3 = molecular target: T1, STAT3 (Homo sapiens, UniProt P40763); assay: biochemical; type: binding; conditions: for remaining activity at 10 µM / percent of DMSO vehicle control at 10 µM: read-out: percent of DMSO vehicle control
T1 construct: made in house; host or cells: HEK293 (transient transfection), unpurified extract
T1 sequence (P40763 whole entry): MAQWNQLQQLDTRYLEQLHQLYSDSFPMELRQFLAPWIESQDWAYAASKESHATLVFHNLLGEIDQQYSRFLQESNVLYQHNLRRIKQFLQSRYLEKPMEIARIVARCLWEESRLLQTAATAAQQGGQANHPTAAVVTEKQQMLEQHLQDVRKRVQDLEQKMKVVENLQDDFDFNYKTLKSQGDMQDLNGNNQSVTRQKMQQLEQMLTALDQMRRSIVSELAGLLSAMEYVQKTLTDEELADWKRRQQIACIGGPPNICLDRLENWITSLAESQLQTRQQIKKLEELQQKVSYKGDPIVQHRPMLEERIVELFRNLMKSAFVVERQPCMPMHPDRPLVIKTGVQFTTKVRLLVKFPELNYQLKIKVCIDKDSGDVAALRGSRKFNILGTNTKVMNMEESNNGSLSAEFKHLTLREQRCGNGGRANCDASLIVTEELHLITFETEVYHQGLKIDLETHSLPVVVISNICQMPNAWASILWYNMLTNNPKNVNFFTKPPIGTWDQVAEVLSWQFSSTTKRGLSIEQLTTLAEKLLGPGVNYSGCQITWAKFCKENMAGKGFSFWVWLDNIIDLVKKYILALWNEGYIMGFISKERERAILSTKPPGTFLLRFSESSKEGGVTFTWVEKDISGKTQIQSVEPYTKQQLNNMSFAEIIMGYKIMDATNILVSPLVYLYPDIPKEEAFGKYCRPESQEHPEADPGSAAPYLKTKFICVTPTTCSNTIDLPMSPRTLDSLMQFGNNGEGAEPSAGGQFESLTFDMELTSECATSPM

STAT5A = molecular target: T2, STAT5A (Homo sapiens, UniProt P42229); assay: biochemical; type: binding; conditions: for remaining activity at 10 µM / percent of DMSO vehicle control at 10 µM: read-out: percent of DMSO vehicle control
T2 construct: made in house; host or cells: HEK293 (transient transfection), unpurified extract
T2 sequence (P42229 1-794): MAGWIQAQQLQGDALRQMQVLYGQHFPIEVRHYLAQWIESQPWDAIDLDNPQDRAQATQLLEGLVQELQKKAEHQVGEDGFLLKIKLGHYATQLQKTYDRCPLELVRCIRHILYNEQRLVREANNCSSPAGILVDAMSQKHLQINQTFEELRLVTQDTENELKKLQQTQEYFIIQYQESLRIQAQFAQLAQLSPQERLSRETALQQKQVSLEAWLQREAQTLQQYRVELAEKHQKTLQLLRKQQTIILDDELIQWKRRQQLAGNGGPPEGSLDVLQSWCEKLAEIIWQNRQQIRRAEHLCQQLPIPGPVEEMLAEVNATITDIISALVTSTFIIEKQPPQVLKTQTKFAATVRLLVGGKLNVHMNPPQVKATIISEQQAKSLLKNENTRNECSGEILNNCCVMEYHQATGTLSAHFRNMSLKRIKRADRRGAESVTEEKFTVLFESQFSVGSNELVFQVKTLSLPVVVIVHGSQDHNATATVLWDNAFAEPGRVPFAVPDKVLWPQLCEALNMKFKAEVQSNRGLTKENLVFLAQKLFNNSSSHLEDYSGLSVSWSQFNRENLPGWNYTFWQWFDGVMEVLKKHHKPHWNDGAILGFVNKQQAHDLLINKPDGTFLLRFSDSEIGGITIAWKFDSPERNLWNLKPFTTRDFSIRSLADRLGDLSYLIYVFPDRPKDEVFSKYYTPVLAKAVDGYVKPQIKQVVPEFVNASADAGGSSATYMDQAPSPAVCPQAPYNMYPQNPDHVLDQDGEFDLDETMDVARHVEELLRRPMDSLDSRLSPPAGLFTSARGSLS

STAT5B = molecular target: T3, STAT5B (Homo sapiens, UniProt P51692); assay: biochemical; type: binding; conditions: for remaining activity at 10 µM / percent of DMSO vehicle control at 10 µM: read-out: percent of DMSO vehicle control
T3 construct: made in house; host or cells: HEK293 (transient transfection), unpurified extract
T3 sequence (P51692 1-787): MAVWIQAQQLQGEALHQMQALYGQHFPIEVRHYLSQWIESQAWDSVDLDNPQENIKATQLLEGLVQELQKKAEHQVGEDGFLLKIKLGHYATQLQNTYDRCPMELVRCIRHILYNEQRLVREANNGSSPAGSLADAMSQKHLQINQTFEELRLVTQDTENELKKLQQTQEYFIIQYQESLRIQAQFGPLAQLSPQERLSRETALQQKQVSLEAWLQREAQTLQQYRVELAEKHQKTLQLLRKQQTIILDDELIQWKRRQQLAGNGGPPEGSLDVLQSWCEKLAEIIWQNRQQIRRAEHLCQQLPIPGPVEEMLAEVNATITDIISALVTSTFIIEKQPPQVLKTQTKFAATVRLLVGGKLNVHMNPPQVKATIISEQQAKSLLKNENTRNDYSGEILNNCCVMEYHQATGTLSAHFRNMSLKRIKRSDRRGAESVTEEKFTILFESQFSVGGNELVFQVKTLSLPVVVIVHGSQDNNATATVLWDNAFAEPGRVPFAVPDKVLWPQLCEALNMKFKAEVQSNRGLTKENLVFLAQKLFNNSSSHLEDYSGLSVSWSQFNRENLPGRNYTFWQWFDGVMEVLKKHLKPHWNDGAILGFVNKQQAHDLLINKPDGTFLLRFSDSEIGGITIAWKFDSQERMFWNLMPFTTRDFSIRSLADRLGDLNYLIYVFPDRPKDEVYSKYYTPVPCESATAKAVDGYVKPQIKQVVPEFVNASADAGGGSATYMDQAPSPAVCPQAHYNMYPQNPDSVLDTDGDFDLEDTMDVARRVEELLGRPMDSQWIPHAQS

STAT5B(N642H) = molecular target: T4, STAT5B(N642H) (Homo sapiens, UniProt P51692, N642H); assay: biochemical; type: binding; conditions: for remaining activity at 10 µM / percent of DMSO vehicle control at 10 µM: read-out: percent of DMSO vehicle control
T4 construct: made in house; host or cells: HEK293 (transient transfection), unpurified extract
T4 sequence (P51692 1-787 N642H): T3 sequence (P51692 1-787) with N642H

SYK(SH2dom1.dom2.) = molecular target: T5, SYK(SH2dom1.dom2.) (Homo sapiens, UniProt P43405); type: binding; conditions: primary screen, 10 μM
T5 construct: the SH2 domains for these targets are expressed in tandem constructs; made in house; host or cells: HEK293 (transient transfection), unpurified extract

ZAP70(SH2dom1.dom2.) = molecular target: T6, ZAP70(SH2dom1.dom2.) (Homo sapiens, UniProt P43403); assay: biochemical; conditions: for remaining activity at 10 µM: read-out: percent of DMSO vehicle control
T6 sequence (P43403 1-254 limits assumed): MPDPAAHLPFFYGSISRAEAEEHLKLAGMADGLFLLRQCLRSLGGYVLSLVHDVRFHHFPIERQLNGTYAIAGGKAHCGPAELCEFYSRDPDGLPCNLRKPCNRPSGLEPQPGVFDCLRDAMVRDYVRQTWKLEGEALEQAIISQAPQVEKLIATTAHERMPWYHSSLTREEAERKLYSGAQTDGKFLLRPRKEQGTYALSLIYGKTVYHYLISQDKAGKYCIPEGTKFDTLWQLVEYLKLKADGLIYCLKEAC

Compound | remaining activity at 10 µM (STAT3; primary screen, 10 μM) | remaining activity at 10 µM (STAT5A; primary screen, 10 μM) | remaining activity at 10 µM (STAT5B; primary screen, 10 μM) | remaining activity at 10 µM (STAT5B(N642H); primary screen, 10 μM) | percent of DMSO vehicle control (SYK(SH2dom1.dom2.)) | remaining activity at 10 µM (ZAP70(SH2dom1.dom2.)) | percent of DMSO vehicle control at 10 µM (STAT3) | percent of DMSO vehicle control at 10 µM (STAT5A) | percent of DMSO vehicle control at 10 µM (STAT5B) | percent of DMSO vehicle control at 10 µM (STAT5B(N642H)) | further results
O=C(CCl)Nc1cccc(CNC(=O)[C@H](Cc2ccc(OP(=O)(O)O)cc2)NC(=O)Cc2ccc(F)cc2)c1 [MN551] | 67.8% | 39 ± 0.8% | 49.1 ± 7.6% | 76.9% | 61.9±4.0% | 33.5% |  |  |  |  | 
CC[C@H](C)[C@H](NC(=O)[C@H](CCC(=O)O)NC(=O)[C@H](CCC(=O)O)NC(=O)[C@H](Cc1ccc(OP(=O)(O)O)cc1)NC(C)=O)C(=O)N[C@@H](CCC(=O)O)C(N)=O [Ac-pYEEIE-NH2] (Ac-[pY]EEIE-NH2) |  |  |  |  | 126.1% |  |  |  |  |  | percent of DMSO vehicle control (STAT3; primary screen, 10 μM): 151.4%; percent of DMSO vehicle control (STAT5A; primary screen, 10 μM): 94.4±4.9%; percent of DMSO vehicle control (STAT5B; primary screen, 10 μM): 21.8±4.7%; percent of DMSO vehicle control (STAT5B(N642H); primary screen, 10 μM): 115.5%
CC(=O)N1CC[C@H]2CC[C@@H](C(=O)N[C@@H](CCC(N)=O)C(=O)NC(c3ccccc3)c3ccccc3)N2C(=O)[C@@H](NC(=O)c2cc3cc(C(F)(F)P(=O)(O)O)ccc3[nH]2)C1 [SI-109] |  |  |  |  | 121.8% | 129% | 0.4 ± 0.1% | 101% | 109% | 123% | Kd (STAT3): 15 nM; Kd (STAT5A): 7030 ± 2200 nM; Kd (STAT5B): 18000 ± 4000 nM; Kd (STAT5B(N642H)): 19000 ± 8500 nM
CC(=O)N[C@@H](Cc1ccc(CP(=O)(O)O)cc1)C(=O)NC1(C(=O)N[C@@H](CC(N)=O)C(=O)NCCCc2c(O)ccc3ccccc23)CCCCC1 [CGP78850] |  |  |  |  | 85.1±0.1% | 91.6 ± 5.3% | 80.9 ± 6.4% | 84.9 ± 21% | 89.6 ± 6.1% | 107 ± 9.8% | 
CC[C@H](C)[C@H](NC(=O)[C@H](CCC(=O)O)NC(=O)[C@H](CCC(=O)O)NC(=O)[C@H](Cc1ccc(OP(=O)(O)O)cc1)NC(=O)/C=C/c1ccc(O)c(O)c1)C(=O)N[C@@H](CCC(=O)O)C(=O)O [Caffeic acid-pYEEIE] (Caffeoyl-[pY]EEIE-OH) |  |  |  |  | 72.6±6.4% | 32.3 ± 1.6% | 102 ± 22.8% | 6.2 ± 0.4% | 19.3 ± 2.8% | 9.4 ± 1% | Kd (STAT5A): 4020 ± 1500 nM; Kd (STAT5B): 4200 ± 2800 nM; Kd (STAT5B(N642H)): 2400 ± 2300 nM; Kd (ZAP70(SH2dom1.dom2.)): 6900 ± 3.8 nM
NC(=O)CC[C@H](NC(=O)[C@@H]1CC[C@@H]2CCN(C(=O)CCCCCC#Cc3cccc4c3CN(C3CCC(=O)NC3=O)C4=O)C[C@H](NC(=O)c3cc4cc(C(F)(F)P(=O)(O)O)ccc4[nH]3)C(=O)N21)C(=O)NC(c1ccccc1)c1ccccc1 (stereo partly shown) [SD-36] |  |  |  |  | 104.6% | 95.6 ± 1.3% | 0.1 ± 0.1% | 3.4 ± 0.4% | 5.7 ± 0.1% | 3.2 ± 0.8% | Kd (STAT3; dose-response): 21 nM; Kd (STAT5A; dose-response): 1600 ± 670 nM; Kd (STAT5B; dose-response): 2030 ± 820 nM; Kd (STAT5B(N642H); dose-response): 2400 ± 740 nM
CC(C)(C)[C@H](NC(=O)/C=C/c1ccc(OP(=O)(O)O)cc1)C(=O)N1CCC[C@H]1C(=O)N(c1ccccc1)c1ccc(I)cc1 [STAT6-IN-3] | 0.7 ± 0.2% | 0% | 0% | 1.3 ± 7.7% | 65.2±43.9% | 60.7 ± 32.9% |  |  |  |  | Kd (STAT3; dose-response, read-out: KD): 370 ± 162 nM; Kd (STAT5A; dose-response, read-out: KD): 46 ± 19 nM; Kd (STAT5B; dose-response, read-out: KD): 69 ± 42 nM; Kd (STAT5B(N642H); dose-response, read-out: KD): 36 ± 27 nM
C/C(=C\C(=O)N[C@H](C(=O)N1CCC[C@H]1C(=O)N(c1ccccc1)c1ccc(I)cc1)C(C)(C)C)c1ccc(OP(=O)(O)O)cc1 [STAT6-IN-1] | 0% | 0% | 0% | 0% | 61.2±11.0% | 51.4% |  |  |  |  | Kd (STAT3; dose-response, read-out: KD): 180 ± 0.01 nM; Kd (STAT5A; dose-response, read-out: KD): 9.1 ± 4.3 nM; Kd (STAT5B; dose-response, read-out: KD): 16 ± 3.2 nM; Kd (STAT5B(N642H); dose-response, read-out: KD): 5.6 ± 2.1 nM
O=C(COc1ccc2cc(C(=O)Nc3ccccc3)ccc2c1)NCc1ccc(OP(=O)(O)O)c(OP(=O)(O)O)c1 [Stafib-1] | 66.9 ± 10% | 22 ± 26.6% | 0% | 12.5 ± 13.5% | 66.1±28.1% | 58 ± 19.5% |  |  |  |  | 
